One block for each compound: values may come before it. Activity calls are given as the source filed them. The rule behind the calls is not given here.
Assays:
[1] = Inhibition of indothelial cell ploriferation determined in bovine aortic endothelial cell (BAEC); format: functional, cell-based, Bos taurus
[2] = molecular target: T1, Methionine aminopeptidase 2 (Homo sapiens, UniProt P50579); assay: In vitro inhibitory activity against purified recombinant human Methionine Aminopeptidase 2 (MetAP2)
Target sequence in this assay (P50579 whole entry): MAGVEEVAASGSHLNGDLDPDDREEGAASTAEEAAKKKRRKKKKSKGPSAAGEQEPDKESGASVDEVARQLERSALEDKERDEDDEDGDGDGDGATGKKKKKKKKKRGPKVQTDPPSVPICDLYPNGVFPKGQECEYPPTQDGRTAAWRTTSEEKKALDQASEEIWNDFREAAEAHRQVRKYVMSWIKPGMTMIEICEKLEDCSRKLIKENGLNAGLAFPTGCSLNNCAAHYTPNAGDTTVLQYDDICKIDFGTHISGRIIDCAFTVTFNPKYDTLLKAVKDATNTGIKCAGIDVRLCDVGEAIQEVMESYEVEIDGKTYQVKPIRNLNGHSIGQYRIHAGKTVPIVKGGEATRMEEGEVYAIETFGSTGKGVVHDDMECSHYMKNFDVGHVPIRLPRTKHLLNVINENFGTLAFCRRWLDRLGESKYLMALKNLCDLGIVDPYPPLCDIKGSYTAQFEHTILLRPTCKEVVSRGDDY

[3] = Inhibition of endothelial cell ploriferation determined in bovine aortic endothelial cell (BAEC); format: functional, cell-based, Bos taurus
[4] = system: Endothelial cell; assay: Inhibition of endothelial cell ploriferation determined in bovine aortic endothelial cell (BAEC); Inactive; format: functional, cell-based; details: Bos taurus
[5] = system: Endothelial cell; assay: Inhibition of indothelial cell ploriferation determined in bovine aortic endothelial cell (BAEC); Inactive; format: functional, cell-based; details: Bos taurus
[6] = molecular target: T1, Methionine aminopeptidase 2
Target sequence in this assay (P50579 2-478 limits assumed): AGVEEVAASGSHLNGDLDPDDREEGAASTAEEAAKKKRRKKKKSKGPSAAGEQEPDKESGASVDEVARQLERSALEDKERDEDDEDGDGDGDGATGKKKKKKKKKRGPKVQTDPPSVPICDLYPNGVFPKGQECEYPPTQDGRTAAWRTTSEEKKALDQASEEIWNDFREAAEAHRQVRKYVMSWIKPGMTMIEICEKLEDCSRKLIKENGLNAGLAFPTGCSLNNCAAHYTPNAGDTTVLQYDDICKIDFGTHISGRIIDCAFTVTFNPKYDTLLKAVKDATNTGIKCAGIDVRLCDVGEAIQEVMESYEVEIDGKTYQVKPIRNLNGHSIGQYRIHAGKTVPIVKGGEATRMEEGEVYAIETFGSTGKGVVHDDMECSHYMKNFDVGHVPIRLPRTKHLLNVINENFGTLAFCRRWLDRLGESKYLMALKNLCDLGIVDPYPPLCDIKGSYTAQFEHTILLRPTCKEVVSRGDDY

Structure (SMILES): CO[C@H]1[C@H]([C@@]2(C)O[C@H]2CC=C(C)C)[C@@](O)(C=O)CC[C@@H]1O
NA [4]: inactive

Structure (SMILES): CO[C@@H]1[C@H](O)CC[C@](O)(C=O)[C@H]1[C@@]1(C)O[C@@H]1CC=C(C)C
NA [5]: inactive

Structure (SMILES): CO[C@@H]1C(=O)CC[C@](O)(C[S+]([O-])c2ccccc2)[C@H]1[C@@]1(C)O[C@@H]1CC=C(C)C (some centres not stated)
NA [6]: inactive
NA [5]: inactive

The next lines start with the values.

IC50 [1]: 52 nM
Structure (SMILES): CO[C@@H]1C(=O)CC[C@](O)(C=O)[C@H]1[C@@]1(C)O[C@H]1CC=C(C)C

IC50 [2]: 1 nM
IC50 [3]: 200 nM
Structure (SMILES): CO[C@@H]1[C@H](OC(=O)/C=C/C=C/C=C/C=C/C(=O)O)CC[C@]2(CO2)[C@H]1[C@@]1(C)O[C@@H]1CC=C(C)C [FUMAGILLIN]

Source: ChEMBL document CHEMBL1136797, “Fumagalone, a reversible inhibitor of type 2 methionine aminopeptidase and angiogenesis” (J Med Chem, 2003)
